# Source: US8436171B2, “Amino substituted pyrazines as inhibitors or protein kinases” (Akinion Pharmaceuticals AB, priority 2008, dated 2013)
# Where a name gives a salt, the structure may show the parent alone.
# Legend:
# [1] = system: AML cell-line MV4-11 (FLT3-ITD); assay: Viability and proliferation assay in AML cell line MV4-11; type: cell-based; details: Homo sapiens; MV4-11 cells, 72 hours, viable cells by flow cytometry; read-out: Cell data MV4-11 (nM), EC50 values determined in AML-cell line
# Experimental: AML cell-line MV4-11 carries the FLT3-internal tandem duplication. This cell-line has been widely used for evaluating the effect of FLT3-kinase inhibitors on viability and proliferation.
# Briefly, cells are seeded at a low density into 96-well plates. Serial dilution of compounds is added and the cells are incubated for 72 hours. Total number of viable cells is measured using flow cytometry at the end of treatment, and the effect of the compounds is calculated as % inhibition compared to vehicle treated cells.
# All cells were cultured under standard cell culture conditions, at 37° Celsius in an atmosphere of 5% CO2 in 90% humidity.
# AML-cell line MV4-11 was cultured in DMEM Glutamax high glucose ([…] glucose) supplemented with 10% Fetal Bovine Serum (FBS) from Invitrogen. Cells were subcultured twice weakly, growing to a density of approx 2 million cells per ml prior to subcultivation.
# For viability determination, 3000-5000 cells were seeded in 50 microliter culture medium into a 96-well plate. Serial dilutions 1:3 of compounds from 10 mM DMSO stock were made in serumfree culture medium supplemented with penicillin and streptomycin. 50 microliter of the serial dilutions were added to the cell-suspension. The final concentration of compounds was from 5 micromolar to 0.8 nM, or from 500 nM to 0.08 nM respectively. The DMSO concentration was kept constant at 0.05%.
# At the end of the treatment, 100 microliter viability reagent (Guava ViaCount) was added to each well and number of cells and viability was determined using flow cytometry (Guava 96-well ViaCount assay). Typically the vehicle treated (0.05% DMSO) cell-line cells had doubled three times during the experiment.
# % Survival was calculated compared to the vehicle treated cells at the end of experiment. EC50 values were determined using the equation (A+((B−A)/(1+((C/x)^D)))) where A equals min, B equals max, C equals EC50 and D equals Hill slope.
# recombinant human FLT3 = target: T1, recombinant human FLT3 (Homo sapiens, UniProt P36888); assay: In vitro FLT3 kinase assay (IMAP fluorescence polarization); type: biochemical; details: mean, n = 4-8; ATP 100 μM; FAM-CSKtide 100 nM; read-out: IC50 (nM), typical mean IC50 values determined in the FLT3 kinase assay
# T1 construct: N-terminal GST tagged, amino acids 564-end; GST (N); purchased Upstate 14-500
# T1 sequence (P36888 564-993 limits assumed): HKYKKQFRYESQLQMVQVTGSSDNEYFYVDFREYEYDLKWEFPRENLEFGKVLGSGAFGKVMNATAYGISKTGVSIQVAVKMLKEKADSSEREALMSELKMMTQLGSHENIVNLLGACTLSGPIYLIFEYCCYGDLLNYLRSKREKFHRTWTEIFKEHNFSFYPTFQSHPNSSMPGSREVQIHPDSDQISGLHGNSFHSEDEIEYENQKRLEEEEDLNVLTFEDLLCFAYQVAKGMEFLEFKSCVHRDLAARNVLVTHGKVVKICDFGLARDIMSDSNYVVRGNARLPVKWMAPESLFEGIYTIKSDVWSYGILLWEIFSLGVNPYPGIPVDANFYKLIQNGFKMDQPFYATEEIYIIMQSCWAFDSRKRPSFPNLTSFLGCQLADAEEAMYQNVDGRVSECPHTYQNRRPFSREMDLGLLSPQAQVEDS
# Experimental: The compounds according to the invention were evaluated for their inhibition of FLT3 by the following method:
# In Vitro FLT3 Kinase Assay
# An enzyme inhibition assay for the tyrosine kinase domain of FLT3 was established using a fluorescence polarization technique, Immobilized Metal Ion Affinity-Based Fluorescence Polarization (IMAP) from Molecular Devices.
# Briefly: kinase activity is measured by incubating a fluorescent peptide substrate with the kinase domain. After completion of the kinase reaction a binding buffer is added. Upon phosphorylation of the substrate, the fluorescent peptide gains the ability to bind to a metal-coated nanoparticle. When the substrate is bound to the nanoparticle, the rotational is speed of the peptide is reduced, and thus the fluorescence polarization (fp) becomes high. Compounds inhibiting the kinase activity of the enzyme will result in a low degree of phosphorylated substrate and a low fp-signal.
# IMAP Buffer kit with Progressive Binding System (Molecular Devices, #R8124): Reaction buffer: 10 mM Tris-HCL pH 7.2 with 10 mM MgCl2, 0.05% NaN3 and 0.01% Tween 20. Prior to use DTT was added to 1 mM DTT final concentration (complete reaction buffer).
# Binding solution was prepared from buffer kit according to the manufactures recommendations. Binding Reagent was diluted 1:1500 in 40% Binding buffer A and 60% Binding buffer B.
# FLT3 enzyme used was recombinant human FLT3 from Upstate (#14-500) 7.2 U/ml, N-terminal GST tagged, amino acids 564-end.
# Substrate peptide used: FAM-CSKtide from Molecular Devices (#R7269) 20 μM, 5FAM-KKKKEEIYFFFG-NH2. […]
# • Pipette into 96-well black ½ area plate: • 5 μl compound dilution or vehicle • 5 μl substrate peptide (400 nM) • 5 μl enzyme (0.05 U/ml) or complete reaction buffer for non specific background (NSB) • 5 μl ATP (400 μM) • Cover the plate and incubate at room temperature with gentle agitation II. […] Fluorescence Polarization analysis: • Measure fluorescein using a plate reader (Analyst AD) excitation wave length 485 and emission wave length 530, reading with integration time of 0.1 sec. […]
Compound,EC50 [1] [nM],IC50 (recombinant human FLT3) [nM]
"NC(=O)c1ccc(-c2cncc(N[C@H]3CC[C@H](O)CC3)n2)cc1 [Example 28, 4-{6-[(trans-4-Hydroxycyclohexyl)amino]pyrazin-2-yl}benzamide, trifluoroacetate]",178,159
"Nc1ncc(-c2ccncc2)nc1NCCc1c[nH]c2ccccc12 [Example 15, N3-[2-(1H-Indol-3-yl)ethyl]-5-pyridin-4-ylpyrazine-2,3-diamine, trifluoroacetate]",184,60
"c1cc(-c2cncc(Nc3ccc4cc[nH]c4c3)n2)ccn1 [Example 32, N-(6-Pyridin-4-ylpyrazin-2-yl)-1H-indol-6-amine]",373,560
